Experimental findings from patent US20230134986A1, “GLUCOSE TRIPTOLIDE CONJUGATES AND USES THEREOF” (The Johns Hopkins University, priority 2020, published 2023) are described below.

The subject of one assay is LNCaP. In words: XTT viability assay, LNCaP. As to conditions: Homo sapiens, Prostate Cancer. It is filed as cell-based. From the text:
(§1) Cells and culture conditions. Primary astrocytes (Lonza, Walkersville, Md.; ABM™ Basal Media with AGM™ SingleQuots™ Supplement Pack), fibroblast (ATCC; Fibroblast Basal Medium (ATCC© PCS-201-030™) with Fibroblast Growth Kit-Serum-free (ATCC© PCS-201-040™)), airway epithelial cell (ATCC; Airway Epithelial Cell Basal Medium (ATCC© PCS-300-030™) with Bronchial Epithelial Cell Growth Kit (ATCC© PCS-300-040™)), renal proximal tubule (ATCC; Renal Epithelial Cell Basal Medium (ATCC© PCS-400-030™) with Renal Epithelial Cell Growth Kit (ATCC© PCS-400-040™)), prostate epithelial cell (Lonza; PrEGM™ BulletKit™) and mammary epithelial cell (Lonza; MEBM™ BulletKit™) were kept in a humidified incubator at 37° C. adjusted to 5% CO2. […]
(§2) XTT assay. […] Cell viability was measured using the R&D Systemsm TACS XTT Cell Proliferation/Viability Assay (R&D Systems, Minneapolis, Minn.).

In a further assay the test system is MDA-MB-231. In words: XTT viability assay, MDA-MB-231. The assay is classed as cell-based. The following applies: Homo sapiens; Breast Cancer, MDA-MB-231, XTT.
From the text: as §1, §2

In a further assay the test system is SK-BR-3. In words: XTT viability assay, SK-BR-3. The assay is classed as cell-based. The following applies: Homo sapiens; Breast Cancer, SK-BR-3, XTT.
From the text: as §1, §2

The next assay deals with Detroit 562. In words: XTT viability assay, Detroit 562. It is filed as cell-based. As to conditions: Homo sapiens; Head and Neck Cancer, Detroit 562, XTT.
From the text: as §1, §2

Another assay deals with SK-Mel-3. Nature of the assay: XTT viability assay, SK-Mel-3. The assay is classed as cell-based. As to conditions: Homo sapiens, SK-MEL3; Melanoma, SK-Mel-3, XTT.
From the text: as §1, §2

The next assay relates to RPMI-7951. Nature of the assay: XTT viability assay, RPMI-7951. The assay is classed as cell-based. As to conditions: Homo sapiens; Melanoma, RPMI-7951, XTT.
From the text: as §1, §2

For a further assay, the system named is BxPC3. Nature of the assay: XTT viability assay, BxPC3. It is filed as cell-based. The following applies: Homo sapiens, BXPC-3, Pancreatic Cancer.
From the text: as §1, §2

Another assay has as its system SW1990. Nature of the assay: XTT viability assay, SW1990. The following applies: Homo sapiens, Pancreatic Cancer. The assay is classed as cell-based.
From the text: as §1, §2

For another assay, the system named is A549. Nature of the assay: XTT viability assay, A549. As to conditions: Homo sapiens, Lung Cancer. The assay is classed as cell-based.
From the text: as §1, §2

The subject of the next assay is NCI-H1299. In words: XTT viability assay, NCI-H1299. The assay is classed as cell-based. As to conditions: Homo sapiens, Lung Cancer.
From the text: as §1, §2

The next assay deals with SNU-475. In words: XTT viability assay, SNU-475. It is filed as cell-based. As to conditions: Homo sapiens; Liver Cancer, SNU-475, XTT.
From the text: as §1, §2

The subject of the next assay is SK-HEP-1. In words: XTT viability assay, SK-HEP-1. The following applies: Homo sapiens, SK-HEP1; Liver Cancer, SK-HEP-1, XTT. It is filed as cell-based.
From the text: as §1, §2

The subject of the next assay is Astrocyte. Nature of the assay: XTT viability assay, primary astrocytes. The assay is classed as cell-based. As to conditions: Homo sapiens, Primary normal cells.
From the text: as §1, §2

A further assay deals with Fibroblast. In words: XTT viability assay, primary fibroblasts. It is filed as cell-based. The following applies: Homo sapiens, Primary normal cells.
From the text: as §1, §2

Another assay deals with Renal Proximal Tubule. In words: XTT viability assay, renal proximal tubule cells. As to conditions: Homo sapiens, Primary normal cells. It is filed as cell-based.
From the text: as §1, §2

In the next assay the test system is Prostate Epithelial cell. In words: XTT viability assay, prostate epithelial cells. It is filed as cell-based. As to conditions: Homo sapiens, Primary normal cells.
From the text: as §1, §2

Another assay has as its system Mammary Epithelial cell. Nature of the assay: XTT viability assay, mammary epithelial cells. The following applies: Homo sapiens, Primary normal cells. The assay is classed as cell-based.
From the text: as §1, §2

The subject of the next assay is Cancer cell lines. Nature of the assay: XTT viability assay, panel of cancer cell lines (means and ranges). It is filed as cell-based. As to conditions: Homo sapiens. From the text: Cells and culture conditions. Primary astrocytes (Lonza, Walkersville, Md.; ABM™ Basal Media with AGM™ SingleQuots™ Supplement Pack), fibroblast (ATCC; Fibroblast Basal Medium (ATCC© PCS-201-030™) with Fibroblast Growth Kit-Serum-free (ATCC© PCS-201-040™)), airway epithelial cell (ATCC; Airway Epithelial Cell Basal Medium (ATCC© PCS-300-030™) with Bronchial Epithelial Cell Growth Kit (ATCC© PCS-300-040™)), renal proximal tubule (ATCC; Renal Epithelial Cell Basal Medium (ATCC© PCS-400-030™) with Renal Epithelial Cell Growth Kit (ATCC© PCS-400-040™)), prostate epithelial cell (Lonza; PrEGM™ BulletKit™) and mammary epithelial cell (Lonza; MEBM™ BulletKit™) were kept in a humidified incubator at 37° C. adjusted to 5% CO2. Prostate (PC3, LNCaP, DU-145), breast (MDA-MB-231, MDA-MB-453, SK-BR-3), head and neck (A253, Detroit 562, SCC-25), melanoma (SK-Mel-3, SK-Mel-1, RPMI-7951), pancreatic (CfPAC-1, BxPC3, SW1990), lung (A549, NCI-H1299, NCI-H1437) and liver (SNU-475, SK-HEP-1, SNU-387) cancer cell lines were obtained from ATCC and cultured in their respective media (prostate cells: RPMI-1640, MDA-MB-231: RPMI-1640, MDA-MB-453: Leibovitz's L-15, SK-BR-3: McCoy's 5a, A253: McCoy's 5a, Detroit 562: EMEM, SCC-25: DMEM, SK-Mel-3: McCoy's 5a, SK-Mel-1: EMEM, RPMI-7951: EMEM), CfPAC-1: IMDM, BxPC3: RPMI-1640, SW1990: Leibovitz's L-15), A549: F-12K, NCI-H1299: RPMI-1640, NCI-H1437: RPMI-1640, SNU-475: RPMI-1640, SK-HEP-1: EMEM, SNU-387: RPMI-1640. All media were supplemented with 10% (vol/vol) filtered fetal bovine serum (FBS, Invitrogen, Carlsbad, Calif.), 1% penicillin/streptomycin (Invitrogen) and maintained in a humidified incubator at 37° C. with 5% CO2 except for MDA-MB-453 and SW1990 grown at 37° C. without CO2 control. Wild type (ATCC) and C342T XPB knock-in cells (named T7115) of Human Embryonic Kidney 293T (HEK293T), HeLa (ATCC) were cultured in DMEM (GIBCO) with 10% (vol/vol) filtered fetal bovine serum (FBS, Invitrogen, Carlsbad, Calif.), 1% penicillin/streptomycin (Invitrogen).
XTT assay. Five thousand cells/well were plated on flat-bottom, transparent 96-well plate in a full growth media and incubated at appropriate culture conditions. Twenty four hours after seeding, cells were treated with indicated drugs and incubated for 47 hrs. Cell viability was measured using the R&D Systemsm TACS XTT Cell Proliferation/Viability Assay (R&D Systems, Minneapolis, Minn.).

Assay [1] relates to PC3 prostate cancer cells expressing firefly luciferase. Nature of the assay: Experimental metastatic prostate cancer mouse model (PC3/ML/fluc, tail vein). The assay is classed as in vivo. The following applies: for tumor cells by bioluminescence imaging: 1 mg/kg daily for 30 days; for Median survival time: i.p. once daily for 30 days. How it is done:
In vivo tumor xenograft assay. Animal experiments were performed following the protocols approved by the Johns Hopkins University Animal Care and Use Committee. The experimental murine model of human prostate cancer metastasis used in this study was generated as previously described. (Bhatnagar et al. (2014) Cancer Res. 74:5772-81) Briefly, four-to six-week-old, male NOD/SCID/IL2R^γnull (NSG, purchased from Animal Resources Core, JHU) were injected with a million PC3/ML/fluc cells via tail vein. Tumor formation was confirmed by bioluminescence imaging (BLI) using the IVIS Spectrum Imaging System (Caliper Life Sciences, Hopkinton, Mass.) three weeks after injection and the mice were given indicated doses of drug once daily (intraperitoneal injection) for 30 days. Tumor progression was then monitored weekly by BLI and survival monitored concurrently.

The mark [2] stands for this setting: Cancer cell lines (n = 21), read-out: mean IC50 by cell type.
Setting [3] is: Less sensitive lines (n = 13), IC50 ≥ 1 μM, read-out: mean IC50 by cell type.
Setting [4] is: Sensitive lines (n = 8), IC50 < 1 μM, read-out: mean IC50 by cell type.
Setting [5] is: 1 mg/kg, days after initiation of treatment.

Molecules are shown by their SMILES. Like-named read-outs stand apart in the source and are kept apart here.

Regarding `CC(C)[C@]12O[C@H]1[C@@H]1O[C@]13[C@]1(O[C@H]1C[C@H]1C4=C(CC[C@@]13C)C(=O)OC4)[C@@H]2OC(=O)CCC(=O)O[C@@H]1OC(CO)[C@@H](O)C(O)C1O` (stereo partly drawn) [Compound 10], the 50% inhibitory concentration (IC50) in the assay on LNCaP came to 0.56 ± 0.09 µM; in the assay with MDA-MB-231, 0.28 ± 0.01 µM; in the assay with SK-BR-3, 1.3 µM; in the assay on Detroit 562, 1.42 ± 0.83 µM; in the assay on SK-Mel-3, 0.42 ± 0.34 µM; in the assay with RPMI-7951 it was 2.67 ± 1.34 µM. Besides, the 50% inhibitory concentration (IC50) came out at 4.15 ± 0.18 µM in the assay on BxPC3; 1.52 ± 0.33 µM in the assay on SW1990; 1.7 ± 0.79 µM in the assay with A549; 6.4 ± 2.43 µM in the assay on NCI-H1299; 3.85 ± 3.26 µM in the assay on SNU-475; 3.38 ± 0.71 µM in the assay with SK-HEP-1. Besides, the half-inhibitory concentration (IC50) in the assay on Astrocyte worked out at 5.31 ± 4.29 µM; in the assay on Fibroblast, 5.64 ± 1.28 µM; with Renal Proximal Tubule, 4.83 ± 1.54 µM; in the assay on Prostate Epithelial cell it was 5.27 ± 2.29 µM; with Mammary Epithelial cell, 2.56 ± 0.29 µM; in the assay on Cancer cell lines (setting [2]), 2.42 ± 2 µM. Also, the results for the IC50 in the assay with Cancer cell lines (setting [3]) and in the assay on Cancer cell lines (setting [4]) were 3.7 ± 2.33 µM and 0.49 µM, respectively. In assay [1], the “tumor cells by bioluminescence imaging” value is on record as “tumor cells were cleared by week 2 of treatment”. The Median survival time in [1] (setting [5]) turned out to be 76 days.
Take `CC(C)[C@]12O[C@H]1[C@@H]1O[C@]13[C@]1(O[C@H]1C[C@H]1C4=C(CC[C@@]13C)C(=O)OC4)[C@@H]2OC(=O)CCCO[C@@H]1OC(CO)[C@@H](O)C(O)C1O` (stereo in doubt) [Compound 1]: the 50% inhibitory concentration (IC50) with LNCaP is 0.45 ± 0.33 µM; with MDA-MB-231, 0.26 ± 0.1 µM; in the assay on SK-BR-3, 2.16 ± 1.59 µM; in the assay with Detroit 562, 1.24 ± 0.61 µM; in the assay with SK-Mel-3, 0.44 ± 0.25 µM; in the assay on RPMI-7951, 5.95 ± 2.45 µM. The IC50 in the assay with BxPC3 turned out to be 5 ± 2.83 µM; with SW1990, 6.48 ± 2.79 µM; in the assay with A549 it was 2.72 ± 1.41 µM; in the assay with NCI-H1299, 11.5 ± 5.51 µM; with SNU-475 it was 4.6 ± 4.55 µM; in the assay with SK-HEP-1, 5.9 ± 0.28 µM. For the same compound, the half-inhibitory concentration (IC50) with Astrocyte was 10.9 ± 9.66 µM; with Fibroblast, 10.6 ± 1.22 µM; with Renal Proximal Tubule, 5.94 ± 2.21 µM; in the assay on Prostate Epithelial cell, 4.72 ± 3.48 µM; in the assay with Mammary Epithelial cell, 4.31 ± 1.03 µM; in the assay with Cancer cell lines (setting [2]), 3.94 ± 3.26 µM. Further, the concentration for half-maximal inhibition (IC50) in the assay with Cancer cell lines (setting [3]) is 6.25 ± 3.68 µM; in the assay with Cancer cell lines (setting [4]), 0.47 ± 0.06 µM; in the assay with Cancer cell lines (with the exception of SNU-387 and NCI-H1299, read-out: range of IC50 values for cancer cell lines), 0.26 to 6.5 µM. Further, the Median survival time in assay [1] (0.25 mg/kg) worked out at 46 days; in [1] (0.5 mg/kg), 76 days; in assay [1] (setting [5]), 84 days. In addition, in assay [1], the “tumor cells by bioluminescence imaging” value is “undetectable levels of cancer cells two weeks after cessation of treatment”. Besides, in [1] (1 mg/kg treatment group, versus 26 days for untreated group), the longest survival is recorded as 86 days.
